Tests used:
murine myoblasts C2C12 = assay: Skeletal muscle differentiation, MHC immunofluorescence (fusion and differentiation indexes); format: cell-based; conditions: IOX2 or FG-4592 24 hours in GM, then 7 days in DM without inhibitor; vs untreated controls
Experimental: (§1) The DM was changed every day for 7 days. Cells were analyzed at 24 hours post-treatment (PT), at 3rd and 7th days of skeletal muscle differentiation.
After differentiation for 7 days in DM, cells were washed with phosphate saline buffer (PBS) and fixed for 15 minutes in 4% (w/v) paraformaldehyde at room temperature. For permeabilization and blocking, cells were incubated for 1 hour in the presence of PBS 0.1% (v/v) Triton X-100 (TX-100, Merck) and 5% (w/v) FBS (Merck) at room temperature. […] After incubation, cells were washed three times in PBS and incubated for 1 hour at room temperature with an anti-mouse FITC-conjugated secondary antibody (Jackson ImmunoResearch), diluted 1:200. […] Myogenesis was assessed by measuring the myotube area and the number of myonuclei per myotube using a fluorescent microscope (Olympus TH4-200) equipped with an acquisition camera. To quantify both differentiation and fusion indexes, ten fields were chosen randomly and, for each field, a minimum of one hundred myosin-positive myotubes with more than two myonuclei were measured using the ImageJ v1.49o software. The area and the number of nuclei per myotube was the mean of ten measurements averaged from three different experiments.
as §1

C57Bl/6N mice = assay: Cardiotoxin-induced muscle regeneration in mice; format: in vivo; conditions: single i.p. injection 10 mg/kg one day before CTX injury; 7 days after injury; laminin staining; vs saline
Experimental: Experiments on muscle regeneration were conducted on 8-10 weeks old male C57Bl/6N mice, matched for weight, and purchased from Charles River Laboratories (Calco, Italy).
Cardiotoxin (CTX, from Naja mossambica, Latoxan, Portes-les-Valence, France, http://www.latoxan.net/) was dissolved in sterile saline to a final concentration of 10 µM. Mice were anesthetized by isofluorane inhalation and hindlimbs were shaved and cleaned with alcohol. Tibialis anterior (TA) muscles were injected with 45 µl of CTX with a 30-gauge needle, with 15 micro-injections of 3 µl CTX each in the mid-belly of the muscle to induce a homogeneous damage. The TA muscles of the contralateral hindlimbs were injected with a saline solution.
DMSO, diluted at 2% in saline solution, was inoculated by i.p. injection to control mice. […] Mice were sacrificed seven days after cardiotoxin treatment.
Briefly, TA muscles were frozen in liquid nitrogen-cooled isopentane and mounted in Killik embedding medium (Bio-optica). Transverse muscle sections (7 µm) were cryosectioned from the midbelly of each muscle. Sections were stained with Hematoxylin (Bio-optica)/Eosin (Merck) to reveal general muscle architecture. […] Images were acquired using Axio Lab.A1 (Zeiss) and quantified with ImageJ v1.49o software.

SMILES | increase in the differentiation index (murine myoblasts C2C12) [fold] | enhancement of cross-sectional area (CSA) of regenerating myofibers (C57Bl/6N mice) [%] | increase of minimal Feret diameter of regenerating myofibers (C57Bl/6N mice) [%] | fusion index (murine myoblasts C2C12)
Cc1nc(C(=O)NCC(=O)O)c(O)c2ccc(Oc3ccccc3)cc12 [FG-4592, Roxadustat] | 1.3 | 25 | 8 | –
O=C(O)CNC(=O)c1c(O)c2ccccc2n(Cc2ccccc2)c1=O [IOX2] | 1.5 | – | – | no significant changes

— patent EP3906926A1, “PROLINE HYDROXYLASE INHIBITORS FOR USE IN THE SKELETAL MUSCLE REGENERATION” (Policlinico San Donato S.p.A.- Istituto di Ricovero e Cura …, priority 2020, dated 2021)
